Publication PMC9189845, “Structure–Activity Relationships of 8-Hydroxyquinoline-Derived Mannich Bases with Tertiary Amines Targeting Multidrug-Resistant Cancer” (Journal of Medicinal Chemistry, 2022)
Where two headings read alike, the source gives them in different places.

Key:
MES-SA/Dx5 cells = experiment: PrestoBlue viability assay, MES-SA/Dx5 cells (MDR, P-gp positive); details: for IC50: Homo sapiens; for SR: selectivity ratio MES-SA vs MES-SA/Dx5, without TQ; for SR_TQ: selectivity ratio MES-SA vs MES-SA/Dx5, with TQ
MES-SA cells = experiment: PrestoBlue viability assay, MES-SA cells; details: Homo sapiens, MES-SA
[1] = UV-visible spectrophotometric titrations (pKa); assay type: physicochemical; details: 25 °C; for pKa: water with 0.2% (v/v) DMSO
Experimental: Spectrophotometrical determination of pKa values was performed as previously reported.[20],[50] An Agilent Cary 8454 diode array spectrophotometer was used to record the UV–visible spectra in the interval 200–800 nm. The path length was between 1 and 5 cm. The spectrophotometric titrations were performed in water with 0.2% (v/v) DMSO on samples containing the compounds at 2–50 μM in the pH range from 2 to 11.5 at 25.0 ± 0.1 °C at an ionic strength of 0.10 M (KCl). Proton dissociation constants and the individual spectra of the species in the different protonation states were calculated with the computer program PSEQUAD.[62]

A431-B1 cells = experiment: PrestoBlue viability assay, A431-B1 (A431-ABCB1) cells
A431 cells = experiment: PrestoBlue viability assay, A431 cells; details: Homo sapiens
[2] = MES-SA/Dx5, 72 h, read-out: IC50 / μM MES-SA/Dx5, absence of TQ, 72 h incubation
[3] = MES-SA/Dx5, read-out: pIC50 value MES-SA/Dx5, MES-SA/Dx5 cells, without TQ (converted)
[4] = 72 h, read-out: IC50 / μM MES-SA, absence of TQ, 72 h incubation
[5] = read-out: pIC50 value MES-SA, MES-SA cells, without TQ (converted)
[6] = 0.2% DMSO, I = 0.10 M KCl, read-out: pKa (OH), experimentally determined
[7] = quinolinium nitrogen, I = 0.10 M KCl, read-out: pKa (NquinH+), experimentally determined
[8] = read-out: pIC50 A431-B1, SARM figure (converted)
[9] = read-out: pIC50 MES-SA, absence of TQ (converted), SARM figure
[10] = read-out: pIC50 MES-SA_TQ, presence of 1 μM TQ (converted), SARM figure
[11] = read-out: pIC50 value MES-SA+TQ, MES-SA cells, with TQ (converted)
[12] = A-431, read-out: pIC50 A431, SARM figure (converted)
[13] = piperidinium / pyrrolidinium / morpholinium N, read-out: pKa (other; N+amH alkylamine nitrogen), experimentally determined
[14] = MES-SA/Dx5, read-out: pIC50 value MES-SA/Dx5 + TQ, MES-SA/Dx5 cells, with TQ (converted)

Row | pKa [1, 6] | pKa [1, 7] | IC50 (A431-B1 cells; [8]) [µM] | IC50 (A431 cells; [12]) [µM] | pKa [1, 13] | SMILES | IC50 (MES-SA/Dx5 cells; [2]) [µM] | IC50 (MES-SA/Dx5 cells; [3]) [µM] | SR (MES-SA/Dx5 cells) | IC50 (MES-SA cells; [4]) [µM] | IC50 (MES-SA cells; [5]) [µM] | SR_TQ (MES-SA/Dx5 cells) | IC50 (MES-SA cells; [11]) [µM] | also measured
1 |  |  | 13.2 | 49 |  | Oc1c(C(c2ccccn2)N2CCCC2)cc(Cl)c2cccnc12 (stereo not shown) [Compound 90] | 6.3 ± 0.15 | 6.31 | 1.91 | 12 ± 1.5 | 12 | 1.78 | 5.89 | IC50 (MES-SA/Dx5 cells; [14]): 3.31 µM
2 | 6.46 ± 0.03 | 1.7 ± 0.1 |  |  | 10.75 ± 0.03 | Oc1c(C(c2ccccc2)N2CCCCC2)cc(Cl)c2cccnc12 (stereo not shown) [Compound 97] | 14 ± 0.15 | 13.8 | 1.06 | 14.9 ± 0.18 | 14.8 |  |  | 
3 |  |  | 24 | 50.1 |  | Oc1c(C(c2ccccn2)N2CCCCC2)cc(Cl)c2cccnc12 (stereo not shown) [Compound 98] | 16.6 ± 0.88 | 16.6 | 1.92 | 31.9 ± 1.55 | 31.6 | 2.45 | 33.1 | IC50 (MES-SA/Dx5 cells; [14]): 13.5 µM
4 | 9.42 ± 0.03 | 1.89 ± 0.03 |  |  | 5.53 ± 0.03 | Oc1c(C(c2ccccn2)N2CCOCC2)cc(Cl)c2cccnc12 (stereo not shown) [Compound 108] | 24.7 ± 4.26 | 24.5 | 1.62 | 40 ± 9.54 | 38.9 |  |  | pKa ([1]; read-out: pKa (NpyridiniumH+), experimentally determined): < 2
5 |  |  | 17.4 | 49 |  | CN1CCN(C(c2ccccn2)c2cc(Cl)c3cccnc3c2O)CC1 (stereo not shown) [Compound 114] | 13.9 ± 0.46 | 13.8 | 1.15 | 16 ± 1.31 | 15.8 |  |  | 

The next lines start with the compound.

Row | SMILES | pKa [1, 6] | pKa [1, 7] | IC50 (A431-B1 cells; [8]) [µM] | IC50 (A431 cells; [12]) [µM] | pKa [1, 13] | IC50 (MES-SA/Dx5 cells; [2]) [µM] | IC50 (MES-SA/Dx5 cells; [3]) [µM] | SR (MES-SA/Dx5 cells) | IC50 (MES-SA cells; [4]) [µM] | IC50 (MES-SA cells; [5]) [µM] | SR_TQ (MES-SA/Dx5 cells) | IC50 (MES-SA cells; [11]) [µM] | also measured
6 | Oc1ccc(CN2CCN(c3ccccc3)CC2)c2cccnc12 [Compound 57] | 8.88 ± 0.03 | 3.63 ± 0.03 |  |  |  | 4.19 ± 0.15 | 4.17 | 0.88 | 3.67 ± 0.35 | 3.63 |  |  | pKa ([1]; read-out: pKa (NpiperaziniumH+ closer to quinoline ring), experimentally determined): 6.69 ± 0.03
7 | Cc1ccccc1N1CCN(Cc2ccc(O)c3ncccc23)CC1 [Compound 58] |  |  | 30.9 | 23.4 |  | 3.01 ± 0.58 | 2.95 | 1.94 | 5.84 ± 1.02 | 5.75 | 1.91 | 5.75 | IC50 (A431-B1 cells; 72 h, read-out: IC50 / µM A431-B1, 72 h incubation): 31.2 µM; IC50 (MES-SA/Dx5 cells; MES-SA/Dx5, read-out: IC50 / μM MES-SA/Dx5 (values in parentheses), presence of 1 μM P-gp inhibitor tariquidar (TQ)): 3.02 ± 0.01 µM; IC50 (MES-SA cells; read-out: IC50 / μM MES-SA (values in parentheses), presence of 1 μM P-gp inhibitor tariquidar (TQ)): 5.78 ± 0.49 µM; IC50 (MES-SA cells; [9]): 5.75 µM; IC50 (MES-SA cells; [10]): 5.75 µM; IC50 (A431 cells; A-431, 72 h, read-out: IC50 / µM A431, 72 h incubation): 23.3 µM
8 | Oc1c(CN2CCCc3ccccc32)ccc2cccnc12 [Compound 79] | 9.98 ± 0.03 | 4.45 ± 0.03 |  |  | 1.7 ± 0.1 | 13.5 ± 0.7 | 13.5 | 0.75 | 10.1 ± 0.38 | 10 |  |  | pKa (other; N+amH alkylamine nitrogen), experimentally determined ([1]; piperidinium / pyrrolidinium / morpholinium N, water): 1.69
9 | Oc1c(C(c2ccccn2)N2CCCC2)ccc2cccnc12 (stereo not shown) [Compound 84] |  |  | 9.55 | 41.7 |  | 10.2 ± 0.6 | 10.2 | 1.69 | 17.2 ± 1.86 | 17 |  |  | 
10 | Oc1c(C(c2ccncc2)N2CCCCC2)ccc2cccnc12 (stereo not shown) [Compound 96] |  |  | 4.57 | 35.5 |  | 14 ± 1.5 | 13.8 | 1.62 | 22.7 ± 0.86 | 22.9 |  |  | IC50 (MES-SA/Dx5 cells; MES-SA/Dx5, read-out: pIC50 Dx5, absence of TQ (converted), SARM figure): 8.32 µM; IC50 (MES-SA/Dx5 cells; MES-SA/Dx5, read-out: pIC50 Dx5_TQ, presence of 1 μM TQ (converted), SARM figure): 12.6 µM; IC50 (MES-SA cells; [9]): 15.5 µM; IC50 (MES-SA cells; [10]): 13.8 µM
